Data: paper PMC11956017, “Design of Benzyl-triazolopyrimidine-Based NADPH Oxidase Inhibitors Leads to the Discovery of a Potent Dual Covalent NOX2/MAOB Inhibitor” (Journal of Medicinal Chemistry, 2025)

Assays:
human NOX1 = target: T1, human NOX1 (Homo sapiens, UniProt Q9Y5S8); experiment: Human NOX1 isolated membranes, Amplex Red/horseradish peroxidase coupled assay; format: biochemical; settings: membrane-embedded; 40 μM NADPH; read-out: IC50 on human NOXs, NOX1 (AMPLEX RED)
T1 construct: expressed in transfected cells; host or cells: HEK293 F cells, transient transfection (pEG BacMam vector); isolated membranes; Cytosolic proteins made in E. coli
T1 sequence (Q9Y5S8 1-564): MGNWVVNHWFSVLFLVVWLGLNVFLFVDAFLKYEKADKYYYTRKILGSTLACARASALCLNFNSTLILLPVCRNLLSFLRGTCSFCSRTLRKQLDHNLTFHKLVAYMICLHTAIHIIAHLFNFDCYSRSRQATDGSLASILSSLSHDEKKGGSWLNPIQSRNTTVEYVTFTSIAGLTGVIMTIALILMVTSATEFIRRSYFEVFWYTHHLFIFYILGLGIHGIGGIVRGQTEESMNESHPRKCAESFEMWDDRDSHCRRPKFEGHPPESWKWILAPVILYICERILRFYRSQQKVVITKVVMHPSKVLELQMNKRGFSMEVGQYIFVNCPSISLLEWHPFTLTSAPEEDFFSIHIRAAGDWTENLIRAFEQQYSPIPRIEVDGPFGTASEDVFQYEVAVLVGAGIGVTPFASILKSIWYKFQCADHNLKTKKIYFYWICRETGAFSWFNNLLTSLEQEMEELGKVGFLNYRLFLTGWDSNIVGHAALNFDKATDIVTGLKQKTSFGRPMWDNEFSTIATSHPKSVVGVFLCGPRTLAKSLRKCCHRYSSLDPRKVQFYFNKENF
T1 sequence (P13498 1-195 partner): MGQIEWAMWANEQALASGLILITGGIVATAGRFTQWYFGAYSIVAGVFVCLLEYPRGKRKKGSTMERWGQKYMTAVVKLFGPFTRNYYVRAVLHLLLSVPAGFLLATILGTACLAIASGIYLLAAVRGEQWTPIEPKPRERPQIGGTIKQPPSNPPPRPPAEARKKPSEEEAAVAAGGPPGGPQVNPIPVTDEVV
Experimental: (§1) Activity assays for IC50 determinations were performed as previously described[40],[42] with modifications for covalent inhibitors. […] The estimated final protein concentrations based on the heme’s absorbance (ε414 nm = 131,000 M^–1 cm^–1) were 10–20 nM. Compounds were incubated for 1 h at 25 °C at varying concentrations, and reactions were initiated with 40 μM NADPH. Fluorescence was measured using a ClarioStar plate reader (excitation 572 nm/emission 583 nm).

NOX2 = NOX2 (Homo sapiens, UniProt P04839); experiment: Human NOX2 isolated membranes, MCLA assay; format: biochemical; set-up: NOX2 was expressed as native protein in X-CGD PLB-985 cells transduced with the RD114 pseudotyped MFGS-NOX2 vector; expressed in transfected cells; host or cells: X-CGD PLB-985 cells transduced with MFGS-NOX2; isolated membranes; Cytosolic proteins made in E. coli; settings: membrane-embedded; 240 μM NADPH; read-out: IC50 on human NOXs, NOX2 (MCLA)
Experimental: IC50 determinations were performed as described, with the same aforementioned modifications for covalent inhibition. Briefly, 20 μg of NOX2-p22^phox membranes was added to a reaction mix with a 65 mM sodium phosphate buffer (pH 7.0), 0.5 μM FAD, 130 μM LiDS, 160 nM p67^phox, p47^phox, Rac1 Q61L, and 1 μM MCLA or 200 μM bovine cytochrome c. The estimated final protein concentration based on the heme’s absorbance was 60 nM. Compounds were incubated for 1 h at 25 °C, at varying concentrations. The reaction started by adding 240 μM NADPH, and measurements were taken by using a GloMax plate reader (Promega; MCLA) or a Cary 100 UV–vis spectrophotometer (Varian; cytochrome c).

human NOX4 = target: T2, human NOX4 (Homo sapiens, UniProt Q9NPH5); experiment: Human NOX4 isolated membranes, Amplex Red/horseradish peroxidase coupled assay; format: biochemical; settings: membrane-embedded; 40 μM NADPH; read-out: IC50 on human NOXs, NOX4 (AMPLEX RED)
T2 construct: expressed in transfected cells; host or cells: HEK293 F cells, transient transfection (pTT22 and pYD7 vectors); isolated membranes
T2 sequence (Q9NPH5 1-578): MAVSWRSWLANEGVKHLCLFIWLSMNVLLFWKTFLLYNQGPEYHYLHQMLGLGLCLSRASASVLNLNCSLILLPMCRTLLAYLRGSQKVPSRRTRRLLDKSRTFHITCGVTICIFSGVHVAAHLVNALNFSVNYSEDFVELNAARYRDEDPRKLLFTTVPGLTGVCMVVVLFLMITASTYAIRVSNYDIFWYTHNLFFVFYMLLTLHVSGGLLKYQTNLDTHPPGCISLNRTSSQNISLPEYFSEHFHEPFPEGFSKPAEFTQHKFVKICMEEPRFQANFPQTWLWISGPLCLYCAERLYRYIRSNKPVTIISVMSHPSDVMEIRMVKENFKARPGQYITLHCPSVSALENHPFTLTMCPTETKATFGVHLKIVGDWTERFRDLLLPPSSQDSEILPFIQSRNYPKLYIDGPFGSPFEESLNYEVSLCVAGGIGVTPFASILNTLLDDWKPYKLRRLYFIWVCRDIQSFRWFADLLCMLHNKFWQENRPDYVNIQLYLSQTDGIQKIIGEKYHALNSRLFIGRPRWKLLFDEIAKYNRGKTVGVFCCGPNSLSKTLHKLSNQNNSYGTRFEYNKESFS
T2 sequence (P13498 1-195 partner): T1 sequence (P13498 1-195 partner)
Experimental: as §1

human NOX5 = target: T3, human NOX5 (Homo sapiens, UniProt Q96PH1); experiment: Human NOX5 isolated membranes, Amplex Red/horseradish peroxidase coupled assay; format: biochemical; settings: membrane-embedded; 40 μM NADPH; read-out: IC50 on human NOXs, NOX5 (AMPLEX RED)
T3 construct: expressed in transfected cells; host or cells: HEK293 F cells, transient transfection (pEG BacMam vector); isolated membranes
T3 sequence (Q96PH1 1-719 isoform Q96PH1-4): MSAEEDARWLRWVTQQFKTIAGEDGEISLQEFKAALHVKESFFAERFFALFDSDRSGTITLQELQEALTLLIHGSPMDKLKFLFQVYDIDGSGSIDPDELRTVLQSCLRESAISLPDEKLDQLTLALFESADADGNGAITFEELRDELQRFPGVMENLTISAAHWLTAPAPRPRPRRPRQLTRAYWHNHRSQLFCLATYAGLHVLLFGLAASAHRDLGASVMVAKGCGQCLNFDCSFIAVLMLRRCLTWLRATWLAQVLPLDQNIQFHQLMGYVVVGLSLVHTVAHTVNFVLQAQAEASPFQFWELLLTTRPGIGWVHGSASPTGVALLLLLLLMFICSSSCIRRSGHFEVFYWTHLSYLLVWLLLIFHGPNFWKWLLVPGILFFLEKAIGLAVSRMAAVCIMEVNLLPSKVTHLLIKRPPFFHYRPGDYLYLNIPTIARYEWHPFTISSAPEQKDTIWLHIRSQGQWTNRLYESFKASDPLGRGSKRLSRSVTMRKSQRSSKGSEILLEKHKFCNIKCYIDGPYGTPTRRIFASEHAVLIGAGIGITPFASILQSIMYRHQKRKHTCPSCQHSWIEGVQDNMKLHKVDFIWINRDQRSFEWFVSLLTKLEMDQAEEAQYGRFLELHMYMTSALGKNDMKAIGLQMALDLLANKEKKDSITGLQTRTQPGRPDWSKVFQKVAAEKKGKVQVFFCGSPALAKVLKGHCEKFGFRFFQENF
Experimental: as §1

[1] = test system: dehydrogenase domain of csNOX5; experiment: NADPH depletion assay on csNOX5 dehydrogenase domain; format: biochemical, Cylindrospermum stagnale; settings: 10 μM inhibitor; 1 μM purified protein, 250 μM NADPH
Experimental: A series of derivatives were synthesized and tested at 10 μM against the dehydrogenase domain of NOX5 from Cylindrospermum stagnale (C. stagnale, CsNOX5; Figure 2B).
The NADPH depletion assay for IC50 determinations was performed as described[10] with modifications for covalent inhibitors, which require longer incubation times. Briefly, the catalytic activity was measured by monitoring the absorbance at 340 nm with a Cary 100 UV–vis spectrophotometer (Varian). A 1 μM portion of purified protein was added in a final volume of 130 μL of 50 mM HEPES pH 7.5 and supplemented with 300 μM FAD. Inhibitors were added at varying concentrations and incubated for 1 h at 25 °C.

csNOX5 dehydrogenase = experiment: Intact protein mass spectrometry of csNOX5 dehydrogenase; format: binding, Cylindrospermum stagnale; settings: intact protein ESI-qTOF-HRMS
Experimental: Approximately 1 mg mL^-1 protein was incubated with 300 μM FAD and 1 mM 9a at 4 °C for 1 h. A negative control reaction was performed by adding an equal volume of DMSO. Protein was denatured by adding 1% (v/v) formic acid. Chromatographic separation and mass spectrometry analysis were carried out as previously reported.[10] Analyses were carried out by ESI-qTOF-HRMS on an […] qTOF system (Sciex) embedding a Twin Sprayer ESI probe and coupled with an ExcionLC system (Sciex) controlled by SciexOS software v. 3.0.0. The injection volume was 10 μL (10 μg), and chromatographic separation was carried out with a bioZen WidePore C4 column (a 100 mm length, a 2.1 mm diameter, and a 2.6 μm particle size; Phenomenex).

For c1ccc2oc(Sc3ncnc4c3nnn4Cc3ccc(CN4CCCCC4)cc3)nc2c1 [Compound 9d, 2-((3-(4-(Piperidin-1-ylmethyl)benzyl)-3H-[1,2,3]triazolo[4,5-d]pyrimidin-7-yl)thio)benzo[d]oxazole], the IC50 (human NOX1) was over 100 µM, the IC50 (NOX2) was 8.1 ± 0.2 µM and the IC50 (human NOX4) was over 100 µM. The IC50 (human NOX5) was 4.72 ± 3.7 µM.
CC(C)(C)OC(=O)N1CCN(c2ncnc3c2nnn3Cc2ccccc2)CC1 [Compound 5, tert-Butyl 4-(3-benzyl-3H-[1,2,3]triazolo[4,5-d]pyrimidin-7-yl)piperazine-1-carboxylate] was tested, and the “% INHIBITION csNOX5 DEHYDROGENASE DOMAIN” value [1] was 16.9 ± 8.2%.
CN(Cc1ccccc1)Cc1ccc(Cn2nnc3c(Sc4nc5ccccc5o4)ncnc32)cc1 [Compound 9c, N-(4-((7-(Benzo[d]oxazol-2-ylthio)-3H-[1,2,3]triazolo[4,5-d]pyrimidin-3-yl)methyl)benzyl)-N-methyl-1-phenylmethanamine] gave an IC50 (human NOX1) of over 100 µM, an IC50 (NOX2) of 12.9 ± 2.2 µM and an IC50 (human NOX4) of over 100 µM. For the same compound, the IC50 (human NOX5) was 14.3 ± 5.9 µM.
For C=CC(=O)N1CCN(c2ncnc3c2nnn3Cc2ccccc2)CC1 [Compound 7a, 1-(4-(3-Benzyl-3H-[1,2,3]triazolo[4,5-d]pyrimidin-7-yl)piperazin-1-yl)prop-2-en-1-one], the “% INHIBITION csNOX5 DEHYDROGENASE DOMAIN” value [1] was 12.0 ± 3.0%.
In the case of Oc1ncnc2c1nnn2Cc1ccccc1 [Compound 1, 3-benzyl-3H-[1,2,3]triazolo[4,5-d]pyrimidin-7-ol], the “% INHIBITION csNOX5 DEHYDROGENASE DOMAIN” value [1] is reported as 0%.
CCCN(C)Cc1ccc(Cn2nnc3c(Sc4nc5ccccc5o4)ncnc32)cc1 [Compound 9b, N-(4-((7-(Benzo[d]oxazol-2-ylthio)-3H-[1,2,3]triazolo[4,5-d]pyrimidin-3-yl)methyl)benzyl)-N-methylpropan-1-amine] was tested, and the IC50 (human NOX1) was over 100 µM, the IC50 (NOX2) was over 100 µM and the IC50 (human NOX4) was over 100 µM. It also gave an IC50 (human NOX5) of over 100 µM.
Nc1ncnc2c1nnn2Cc1ccccc1 [Compound 4, 3-Benzyl-3H-[1,2,3]triazolo[4,5-d]pirimidin-7-amina] was tested, and the “% INHIBITION csNOX5 DEHYDROGENASE DOMAIN” value [1] was 28.0 ± 9.2%.
With Cl.c1ccc(Cn2nnc3c(N4CCNCC4)ncnc32)cc1 [Compound 6, 3-Benzyl-7-(piperazin-1-yl)-3H-[1,2,3]triazolo[4,5-d]pyrimidine Hydrochloride] the “% INHIBITION csNOX5 DEHYDROGENASE DOMAIN” value [1] was 7.0 ± 3.2%.
For FC1(F)CC2(CCN(Cc3ccc(Cn4nnc5c(Sc6nc7ccccc7o6)ncnc54)cc3)CC2)C1 [Compound 9f, 2-((3-(4-((2,2-Difluoro-7-azaspiro[3.5]nonan-7-yl)methyl)benzyl)-3H-[1,2,3]triazolo[4,5-d]pyrimidin-7-yl)thio)benzo[d]oxazole], the IC50 (human NOX1) was over 100 µM, the IC50 (NOX2) was 13.8 ± 2.8 µM and the IC50 (human NOX4) was over 100 µM. It also gave an IC50 (human NOX5) of 46.6 ± 9.1 µM.
With CC(=O)N1CCN(c2ncnc3c2nnn3Cc2ccccc2)CC1 [Compound 7b, 1-(4-(3-Benzyl-3H-[1,2,3]triazolo[4,5-d]pyrimidin-7-yl)piperazin-1-yl)etan-1-one] the “% INHIBITION csNOX5 DEHYDROGENASE DOMAIN” value [1] was 40.5 ± 14.8%.
C=CC(=O)Nc1ccc(Sc2ncnc3c2nnn3Cc2ccccc2)cc1 [Compound 7d, N-(4-((3-Benzyl-3H-[1,2,3]triazolo[4,5-d]pyrimidin-7-yl)thio)phenyl)acrylamide] was tested, and the “% INHIBITION csNOX5 DEHYDROGENASE DOMAIN” value [1] was 28.1 ± 2.8%.
For C=CC(=O)N1CCC(Nc2ncnc3c2nnn3Cc2ccccc2)CC1 [Compound 7c, 1-(4-((3-Benzyl-3H-[1,2,3]triazolo[4,5-d]pyrimidin-7-yl)amino)piperidin-1-yl)prop-2-en-1-one], the “% INHIBITION csNOX5 DEHYDROGENASE DOMAIN” value [1] was 41.2 ± 9.7% and the “covalent binding to csNOX5 dehydrogenase active-site cysteine” value (csNOX5 dehydrogenase) was “no covalent binding”.
CS(=O)(=O)Oc1ncnc2c1nnn2Cc1ccccc1 [Compound 2] was tested, and the “% INHIBITION csNOX5 DEHYDROGENASE DOMAIN” value [1] was 15.1 ± 2.5%.
In the case of c1ccc2oc(Sc3ncnc4c3nnn4Cc3ccc(CN4CCOCC4)cc3)nc2c1 [Compound 9e, 2-((3-(4-(Morpholinomethyl)benzyl)-3H-[1,2,3]triazolo[4,5-d]pyrimidin-7-yl)thio)benzo[d]oxazole], the IC50 (human NOX1) is reported as over 100 µM, the IC50 (NOX2) is reported as 1.9 ± 0.2 µM and the IC50 (human NOX4) is reported as over 100 µM. It also gave an IC50 (human NOX5) of 2.06 ± 0.96 µM.
